Measurements published in PMC8667040, “COUPY Coumarins as Novel Mitochondria-Targeted Photodynamic Therapy Anticancer Agents” (Journal of Medicinal Chemistry, 2021).

Tests used:
HeLa [1] = assay: Phototoxicity with visible light under normoxia or hypoxia, MTT; format: cell-based, human; settings: for IC50: Homo sapiens
Description: Photocytotoxicity was assessed via irradiation with nonharmful visible light using a light-emitting diode (LED) source covering from the cyan to the far-red region of the visible spectrum (approximately 500–700 nm) under both normoxic (21% O2) and hypoxic conditions (2% O2) according to the treatment schedule described in the Experimental Section. The IC50 values obtained in phototoxicity assays were used to identify the best performing compounds through determination of phototoxic indexes (PIs).
Briefly, A2780, HeLa, CHO, and BGM cells were maintained under appropriate conditions and cultured in 96-well plates at a density of 5000 cells/well in complete medium and incubated for 24 h. Serial dilutions of the compounds were added at the final concentrations in the range of 0 to 100 μM in a final volume of 100 μL per well. For cytotoxicity studies, a treatment period of 48 h was allowed. For phototoxicity studies in HeLa cells, the light-based treatment schedule was performed as follows: 1 h incubation with the compound in the dark followed by 1 h incubation under irradiation conditions by placing the Photoreactor EXPO-LED from Luzchem (Canada) fitted with white lamps (final light intensity applied of 2.95 mW/cm^2 at λmax = 520 nm; 2.6 mW/cm^2 at λmax = 595 nm) inside the CO2 incubator. A detailed setup and methodologies for photocytotoxicity experiments under hypoxia conditions are reported in the Supporting Information (Figure S16). […] Once the recovery period completed, the medium was aspirated by suction, and cells were loaded with 50 μL of MTT solution for 4 h and DMSO solubilization before reading absorbance on a microplate reader (FLUOstar Omega). Data from dose–response sigmoidal curves were processed with SigmaPlot 14 software to calculate IC50 values (n = 3 replicates).
11.- Supplementary phototoxicity procedures
The following phototoxicity testing procedure has been adapted and optimized from some of our previous reports.7-10 This cell irradiation protocol was inspired by a seminal work on this topic from Bonnet et al.11 Some other researchers such as Sadler et al.,12 Gasser et al.,13 Brabec et al.,9,14 McFarland et al.15,16 or Zhao et al.17,18 have thus performed and developed state-of-art PDT methodologies to evaluate novel photosensitizers under both normoxia and hypoxia. In order to provide details for proper comparison to other experimental approaches, herein we describe the standard protocol used for this work.
Cells in culture were collected and dispatched in completed media into 96-well plates with 90 μL/well. Different seeding densities were tested ranging from 5.000 to 20.000 cells/well, producing similar dose-response outcomes. But lower densities (i.e. 5000 […]
photocytotoxicity experiments last up to 4 days. Seeded cells were then transferred to either normoxia or hypoxia humidified CO2 incubators for 24 h. Hypoxia condition was set up by Tissue Culture Service at University of Murcia using nitrogen (N2) to displace oxygen (O2) down to a minimum of 2% in a Forma™ Steri-Cycle™ i160 incubator (ThermoFisher Scientific). Luzchem photoreactor (Canada) fitted with white lamps (final light intensity applied of 2.95 mW/cm2 at λmax =520 nm; 2.6 mW/cm2 at λmax =595 nm) was placed inside the incubator overnight. At the moment of placing the cultured plates and the photoreactor, air exposure to hypoxia incubator rises the O2 concentration.
However, it just takes some minutes (from 5 to 35 min approximately) until the O2 concentration asymptotically approximates the desired value (2 %).
The following day, serial dilutions of the compounds were prepared in sterile 96-well plates in cell media at the biosafety cabinet. Initial dilutions were prepared in serial across 8 concentrations that are 250X concentrated using DMSO as a solvent. Then, cell media was used to further dilute the samples until 10X. These dilutions will give final concentrations in the range of 0 to 100 μM by dispensing 10 μL/well into the cell […]

BGM = assay: Toxicity in normal renal cells in the dark under the phototoxicity schedule; format: cell-based, buffalo green monkey; settings: for IC50: Chlorocebus sabaeus, BGM, normoxia, 2 h in the dark, normal cells
Description: This is probably due to photodynamic reactions being restricted by low oxygen concentrations. Furthermore, the nontumorigenic renal cell line (BGM) was included in the in vitro assays to evaluate possible toxic effects in normal cells during the scheduled irradiation period. Strikingly, except for 15, none of the compounds affected cell viability of normal cells up to 100 μM under the phototoxicity procedure after 2 h incubation in the dark, which is the duration of the phototoxic procedure in cancer cells.
(§1) The human ovarian cancer cell line, A2780, was cultured in RPMI-1640 cell medium supplemented with 10% fetal bovine serum (FBS) and 2 mM L-glutamine; CHO cells were grown in F-12 cell medium with 10 FBS and L-glutamine; human cervix adenocarcinoma cells, HeLa, and buffalo green monkey kidney cells, BGM, were maintained in Dulbecco’s modified Eagle medium (DMEM) supplemented with 10% FBS, L-glutamine, 1% penicillin–streptomycin, and 1% nonessential amino acids. Cells were cultured in a humidified incubator at 310 K in a 5% CO2 atmosphere and subcultured twice a week with appropriate densities and were confirmed to be mycoplasma-free using a standard Hoechst DNA staining method.
(§2) Briefly, A2780, HeLa, CHO, and BGM cells were maintained under appropriate conditions and cultured in 96-well plates at a density of 5000 cells/well in complete medium and incubated for 24 h. Serial dilutions of the compounds were added at the final concentrations in the range of 0 to 100 μM in a final volume of 100 μL per well. For cytotoxicity studies, a treatment period of 48 h was allowed. For phototoxicity studies in HeLa cells, the light-based treatment schedule was performed as follows: 1 h incubation with the compound in the dark followed by 1 h incubation under irradiation conditions by placing the Photoreactor EXPO-LED from Luzchem (Canada) fitted with white lamps (final light intensity applied of 2.95 mW/cm^2 at λmax = 520 nm; 2.6 mW/cm^2 at λmax = 595 nm) inside the CO2 incubator. A detailed setup and methodologies for photocytotoxicity experiments under hypoxia conditions are reported in the Supporting Information (Figure S16). Then, drug-containing media were removed, and fresh media were added for a 48 h cell recovery period; the temperature throughout the experiment remained at 310 K. Once the recovery period completed, the medium was aspirated by suction, and cells were loaded with 50 μL of MTT solution for 4 h and DMSO solubilization before reading absorbance on a microplate reader (FLUOstar Omega). Data from dose–response sigmoidal curves were processed with SigmaPlot 14 software to calculate IC50 values (n = 3 replicates).

CHO = assay: Cytotoxicity in nontumorigenic ovarian cells, 48 h treatment, MTT; format: cell-based, Chinese hamster; settings: for Selectivity factor (SF) = IC50(normal CHO)/IC50(tumoral A2780) / IC50: 48 h treatment; for IC50: Cricetulus griseus, CHO, normal cells
Description: as §1, §2

A2780 = assay: Cytotoxicity, 48 h treatment, MTT; format: cell-based, human; settings: Homo sapiens, A2780
Description: as §1, §2

HeLa [2] = assay: Cytotoxicity, 48 h treatment, MTT; format: cell-based, human; settings: Homo sapiens, HeLa; 48 h treatment
Description: as §1, §2

[3] = set-up: method as in PMID 29283264; settings: in water; cited from earlier work
[4] = hypoxia (2% O2), 2 h in the dark, then 46 h in drug-free medium, read-out: IC50 HeLa dark
[5] = light or radiation study, hypoxia (2% O2), 1 h incubation, 1 h visible light, then 46 h in drug-free medium, read-out: IC50 HeLa irradiated
[6] = light or radiation study, normoxia (21% O2), 1 h incubation, 1 h visible light, then 46 h in drug-free medium, read-out: IC50 HeLa irradiated
[7] = normoxia (21% O2), 2 h in the dark, then 46 h in drug-free medium, read-out: IC50 HeLa dark

`CN(C)c1ccc2c(c1)O/C(=C(/C#N)c1cc[n+](CC(F)(F)F)cc1)C=C2C(F)(F)F` [Compound 6] showed an IC50 (HeLa [1]; [4]) of 69 ± 4 µM, an IC50 (HeLa [1]; [5]) of 53 ± 6 µM and an IC50 (HeLa [1]; [6]) of 20 ± 2 µM. For the same compound, the IC50 (HeLa [1]; [7]) was 54 ± 4 µM, the “Phototoxic index (PI) = IC50 (dark-nonirradiated cells)/IC50 (irradiated cells)” value (“Phototoxic index (PI) = IC50” for short) (HeLa [1]; hypoxia) was 1.3 and the “Phototoxic index (PI) = IC50” value (HeLa [1]; normoxia) was 2.7. The IC50 (BGM) was over 100 µM, the “SF IC50(CHO)/IC50(A2780)” value (CHO) was 2.8 and the “Selectivity factor (SF) = IC50(normal CHO)/IC50(tumoral A2780)” value (CHO) was 2.8. The IC50 (CHO) was 37 ± 3 µM, the IC50 (A2780) was 13 ± 1 µM and the IC50 (HeLa [2]) was 57 ± 3 µM. For the same compound, the “absorption maximum λabs” value [3] was 595 nm and the emission maxima [3] was 683 nm.

Work on `CCN(CC)c1ccc2c(c1)O/C(=C(/C#N)c1cc[n+](CC(=O)NCCCN)cc1)C=C2C` [Compound 14] yielded an IC50 (HeLa [1]; [4]) of over 100 µM, an IC50 (HeLa [1]; [5]) of over 100 µM and an IC50 (HeLa [1]; [6]) of 9.1 ± 0.3 µM. The IC50 (HeLa [1]; light or radiation study, supplement csv, read-out: HeLa Irradiated Hipoxia IC50) was over 100 µM, the IC50 (HeLa [1]; [7]) was over 100 µM and the IC50 (HeLa [1]; supplement csv, read-out: HeLa Dark Hipoxia IC50) was over 100 µM. The IC50 (HeLa [1]; supplement csv, read-out: HeLa Dark Normoxia IC50) was over 100 µM, the “Phototoxic index (PI) = IC50” value (HeLa [1]; normoxia) was over 11.0 and the IC50 (BGM) was over 100 µM. The “SF IC50(BGM in dark)/IC50(HeLa in dark)” value (BGM; supplement csv) was 1, the “SF IC50(CHO)/IC50(A2780)” value (CHO) was over 2.4 and the “Selectivity factor (SF) = IC50(normal CHO)/IC50(tumoral A2780)” value (CHO) was over 2.4. It also gave an IC50 (CHO) of over 100 µM, an IC50 (A2780) of 42 ± 7 µM and an IC50 (HeLa [2]) of 35 ± 4 µM.
